Data reported in US5866576A, “Epoxide-containing compounds” (Cell Therapeutics, Inc., priority 1997, dated 1999).

Assays:
[1] = tested on: U937 cells; human umbilical vein endothelial cells (HUVEC); experiment: adhesion of U937 cells to TNF-α activated HUVEC (FIG. 5); type: cell-based; conditions: TNF-α 20 ng/ml, 12 hours
Procedure: HUVEC cells were activated with 20 ng/ml of TNF for 12 hrs. Drug was added to each culture (except for controls) one hour prior to adding TNF. U937 cells, preloaded with the fluorescent dye BCECF, were added to each culture well and then washed. Cell adhesion was determined on a fluorescence plate reader, showing a decrease in cell adhesion caused by all three drugs in a dose dependent fashion.
This example illustrates a comparison of the effects of inventive compounds nos. 1605, 1808 and 1906 to inhibit adhesion of U937 cells to activated human umbilical vein endothelial cells (HUVEC). HUVEC cells (4000/ well, seeded 72 hours in advance) were activated with 20 ng/ml of TNF-α for 12 hours. Drug was added to the HUVEC (except for controls) one hour prior to adding TNF-α. U937 cells, preloaded with the fluorescent dye BCECF, were added to each culture well and then washed twice with PBS. Cell adhesion was determined by measuring the fluorescence of adhering U937 cells on a fluorescence plate reader.

[2] = tested on: PBMC (peripheral blood mononuclear cells); experiment: two-way mixed lymphocyte reaction, PBMC (FIG. 1); type: cell-based; conditions: for potency in mixed lymphocyte reaction compared with PTX: PTX not shown on graph
Text: This example illustrates the effects of inventive compounds nos. 1605, 1808 and 1906 as immune modulators in a mixed lymphocyte reaction. […] 1605, 1808 and 1906.

[3] = tested on: vascular cell adhesion molecule-1 (VCAM) in human umbilical vein endothelial cells (HUVEC); experiment: cell surface expression of VCAM in TNF-α stimulated HUVEC, flow cytometry (FIG. 6); type: cell-based; conditions: TNF-α 20 ng/ml, 20 hrs
Procedure: The HUVEC cells were stimulated with 20 ng/ml TNF-α for 20 hrs and then stained for immunofluorescence using a monoclonal antibody recognizing VCAM, followed by a goat anti-mouse antibody conjugated to phycoerythrin. The cells were analyzed for antibody binding using flow cytometry.
This example illustrates the effects of inventive compounds nos. 1605, 1808 and 1906 to inhibit cell surface expression of vascular cell adhesion molecule-1 (VCAM) in human umbilical vein endothelial cells (HUVEC). The HUVEC cells were stimulated with 20 ng/ml TNF-α for 20 hrs and then stained for immunofluorescence using a monoclonal antibody recognizing VCAM, followed by a goat anti-mouse antibody conjugated to phycoerythrin. The cells were analyzed for antibody binding using flow cytometry.

human stromal cells = experiment: PDGF-induced proliferation of human stromal cells (FIG. 4); type: cell-based; conditions: PDGF-BB 50 ng/ml
Procedure: Human stromal cells were starved in serum-free media for 24 hours and then stimulated with 50 ng/ml of PDGF-BB. The drugs were added at various indicated concentrations one hour prior to PDGF stimulation. Tritiated thymidine was added for 24 hrs at the time of PDGF stimulation to measure cellular proliferation. Background counts were approximately 5% of control levels.
This example illustrates a comparison of inventive compounds nos. 1605, 1808 and 1906 on PDGF-induced (platelet derived growth factor) proliferation of human stromal cells. Human stromal cells were starved in serum-free media for 24 hours and then stimulated with 50 ng/ml of PDGF-BB. The drugs were added at various indicated concentrations one hour prior to PDGF stimulation. Tritiated thymidine was added for 24 hours at the time of PDGF stimulation to measure cellular proliferation. Background counts were approximately 5% of control levels.

thymocytes [4] = experiment: thymocyte proliferation co-stimulated with Con A and/or IL-1α (FIG. 2); type: cell-based, Balb/C mice; conditions: three dose levels
Procedure: The thymocytes were obtained from normal female Balb/C mice and stimulated with Concanavalin A (Con A) and/or interleukin-1 alpha (L-1α). Drugs were added to the cell cultures two hours before activation with Con A and/or IL-1α.
This example illustrates a comparison of three dose levels of inventive compounds nos. 1808 and 1906 and no drug control to inhibit thymocyte proliferation. The thymocytes were obtained from normal female Balb/C mice and co-stimulated with Concanavalin A (Con A) and/or IL-1α (interleukin-1 alpha). The thymuses were dissociated and plated into 96-well plates at a density of 2×10^5 cells/well. Dilutions of Con A and/or IL-1α were added to the wells and the cells were incubated for 4 days at 37° C. Drugs were added to the cell cultures two hours before activation with Con A and/or IL-1α. On day 4, the cells were pulsed with tritiated thymidine and allowed to incubate an additional 4 hrs. The cells were harvested and counted.

[5] = tested on: normal human bone marrow stromal cells (MSC); experiment: human bone marrow stromal cell (MSC) proliferation in response to PDGF BB and IL-1α; type: cell-based; conditions: Table III, PDGF BB 50 ng/ml and IL-1α 10 ng/ml
Procedure: This example illustrates the effects of inventive compounds nos. 1114, 1413, 1560, 1565, 1594, 2518, 2548R, 2548S and 3503 as effective inhibitors of normal human bone marrow stromal cells (MSC) proliferation in response to Platelet Derived Growth Factor BB (PDGF B) and IL-1α (50 and 10 ng/ml, respectively).
MSC were obtained and malintained in exponential growth, released from a growth plate with trypsin and plated into 96 well tissue culture plates in the presence of Fibroblast Growth Factor (FGFβ) for 48 hours. Growth media were removed and the cells were washed once with serum free media. The cells were then incubated 20-24 hours in serum free media.
After incubation, inventive compounds were added to the cells at the appropriate concentration and then the cells again incubated for 1 hour. PDGF B and IL-1α were added to the cells along with 3H-thymidine and the cells again incubated for an additional 24 hours.
After 24 hours of incubation, the cells were then harvested to assess incorporation of ^3 H-thymidine into DNA (proliferation). From each harvested cell culture, an IC-50 for each inventive compound tested was determined. Therefore, a lower reported IC-50 value is indicatilve of greater activity of the invention compounds in inhibiting MSC proliferation. Table III illustrates IC-50 values (in μM) for invention compounds inhibiting MSC proliferation at very low concentrations of compound.

thymocytes [6] = experiment: murine thymocyte proliferation assay co-stimulated by ConA and IL-2 (FIGS. 7A-7E); type: cell-based, Balb/C mice; conditions: Mus musculus
Text: This example illustrates dose response curves used to generate 50% inhibition concentrations (IC50) for inventive compounds nos. 1410, 1439, 1541, 1553, 1553S, 1560, 1565, 2548R, 2548S and 2562 in a murine thymocyte proliferation assay, co-stimulated by Concanavalin A (ConA) and interleukin-2 alpha (IL-2). ConA, used to activate the T-cell receptor (TCR), along with IL-2 co-stimulation, induces T-cell proliferation and differentiation. Thymuses, obtained from normal, female Balb/C mice, were dissociated and plated into 96-well plates at a density of 2×10^5 cells/well. ConA (0.25 mg/ml) and IL-2 (15 U/ml) were added to the wells. The cells were incubated for 4 days at 37° C. On day 4, the cells were pulsed with tritiated thymidine and incubated for an additional 4 hours. The amount of tritiated thymidine incorporated by the harvested cells was determined in a liquid scintillation counter. Doses of inventive compounds (shown in FIGS. 7A-7E) were added two hours prior to ConA and IL-2 activation. Background counts were less than 200 cpm. Results obtained, illustrate the ability of the inventive compounds to inhibit thymocyte proliferation and activation. In FIG. 7A, inventive compounds nos. […] FIG. 7B presents additional data for compound no. 1410 and 1553S in this assay. […] FIG. 7C reports assay results for inventive compounds nos. 1439, 1541, 1560 and 1565. […] FIGS. 7D and 7E illustrate assay results for inventive compounds nos. 1541, 1553, 1560 and 1565 (FIG. 7D) and 2562, […] (FIG. 7E). As is true of other inventive compounds tested, all these compounds represented in FIGS. 7D and 7E inhibit thymocyte proliferation. […] 1541, 1553, 1560, 1565, 2562, 2548R and 2548S, respectively.

murine splenocytes = experiment: murine splenocyte proliferation co-stimulated by anti-mu and IL-4 (FIG. 11); type: cell-based; conditions: Mus musculus, anti-mu / IL-4 12.5 ng/ml
Procedure: This example illustrates inhibitive effects of compounds nos. 1439, 1553S, 1560 and 1565 on murine splenocyte proliferation co-stimulated by anti-mu ([…]) and interleukin-4 (IL-4, 12.5 ng/ml). This in vitro assay, described above, is indicative of immune-suppressive/autoimmune treatment assay emphasizing humoral or B cell immune response. This assays are a predictive model for treatment or prevention of autoimmune diseases, such as diabetes, lupus, arthritis, and the like. The assay measures immunosuppressive activity of a drug at the B cell level. Spleens from adult mice contain immature B cells that express surface IgM. Cross-linking the surface IgM with an anti-mu antibody results in B cell proliferation. Additionally, this activation results in an increased expression of interleukin-4 receptors(IL-4R) on the surface of such cells. IL-4 acts as a growth factor for B cells and will increase the amount of proliferation induced by anti-mu.
A mixture of anti-mu and murine IL-4 is added to murine splenocytes to cause their proliferation. Mice spleens are obtained from adult mice and a single cell suspension is prepared in RPMI 1640 medium supplemented with 10% FCS. Cells (200,000) are plated into flat-bottomed wells and pre-incubated for 1-2 hours with various concentrations of inventive compound or PBS if it is a control. A mixture of anti-mu and murine is added to the wells at a final concentration of 5 μg/ml anti-mu and 12.5 ng/ml IL-4 and plates are incubated for three days. Proliferation is determined on the third day with a pulse of tritiated thymidine. The IC50 concentration of a particular drug is the concentration of drug that results in a 50% inhibition of the proliferation obtained from the positive control.

lymph node cells = experiment: ovalbumin-induced proliferation in murine lymph cells (FIG. 13); type: cell-based, Balb/C mice; conditions: Mus musculus, OVA 200 μg/ml
Text: This example illustrates effects of the inventive compounds on ovalbumin-induced proliferation in murine lymph cells. Lymphnode cells contain a mixture of lymphoid cells: T-cells, B-cells and macrophages. Although proliferating cells in this assay are T-cells, the response obtained depends on type of antigen-presenting cell (e.g., macrophages) as well as elaboration of various immunoregulatory cytokines. Thus, this assay serves as a good model for T-cell mediated responses and as a valuable screening tool in identifying compounds useful in immunosuppressive therapeutic applications.
Murine T-cells proliferate in vitro in response to a soluble protein antigen if first primed with a corresponding antigen in vivo. This in vivo priming usually involves emulsifying the antigen in complete Freunds adjuvant and injecting this preparation into an appropriate site on a mouse. In this assay the antigen employed was chicken ovalbumin(OVA). Following emulsification in Freund's complete adjuvant, 50 μg of OVA were injected into both hind footpads of adult Balb/C mice. Fourteen days later the draining lymph nodes(popliteal) were removed and a single cell suspension was prepared in RPMI-1640 (10%FCS) medium. Two hundred thousand lymph node cells are then plated into wells of flat-bottom 96-well plates. Inventive compouds nos. 1410, 1553 (racemic), 1553(S), 1560 and 1565 were added to appropriate wells at various concentrations. OVA, at a final concentration of 200 μg/ml, was added to appropriate wells. Positive and negative controls were established on each plate, all assay variables being set up in quadruplicate.
The plates were incubated in a humidified, 5% CO2 incubator for 5 days. On the fifth day, 1 μCi of tritiated thymidine was added to each well and the plates were incubated for an additional 4 hours. The plates were harvested and the incorporation of 3H-TdR was determined in a liquid scintillation counter. The CPM data was then used to calculate experimental IC50 values for the compounds tested. Again, IC50 is defined as that concentration of compound resulting in 50% inhibition of 3H-TdR incorporation of the positive control.

Ramos B-cell tumor line = experiment: B-cell proliferation, Ramos line stimulated with anti-mu or PMA (FIG. 3); type: cell-based, human; conditions: 250 μM, anti-mu or PMA (5 nM)
Procedure: A Ramos […] tumor line was treated with 250 μM 1808 or 1605 for one hour prior to stimulation of proliferation with anti-mu antibody or phorbol myristic acid (PMA, 5 nM). One day later, proliferation was measured with tritiated thymidine.
This example illustrates a comparison of inventive compounds nos. 1605 and 1808 for inhibition of B-cell proliferation. A Ramos B-cell tumor line was treated with 250 μM 1808 or 1605 for one hour prior to stimulation of proliferation with anti-mu antibody or PMA (5 nM). One day later, proliferation was measured with tritiated thymidine.

SMILES | inhibition of U937 cell adhesion to HUVEC [1] | activity in mixed lymphocyte reaction (immune modulation) [2] | potency in mixed lymphocyte reaction compared with PTX [2] | mean fluorescence (VCAM surface expression) [3] | inhibition of PDGF-induced proliferation (human stromal cells) | inhibition of thymocyte proliferation (thymocytes [4]) | IC50 [5] [µM] | IC50 (thymocytes [6]; FIG. 7C) [µM] | IC50 (thymocytes [6]; FIGS. 7D and 7E) [µM] | IC50 (murine splenocytes) [µM] | IC50 (lymph node cells) [µM] | inhibition of B-cell proliferation (Ramos B-cell tumor line) | IC50 (thymocytes [6]; FIG. 7B) [µM]
Cc1cn(C)c(=O)n(CCCCC2CO2)c1=O (centres unmarked) [Compound 1906, 3-(5,6-Oxidohexyl)-1-methylthymine] | decrease in cell adhesion induced by TNF-α in a dose dependent fashion | demonstrated activity | more potent than PTX | Mean fluorescence levels were decreased | inhibited PDGF-induced stimulation in a dose response fashion | inhibited thymocyte proliferation is a dose-dependent fashion |  |  |  |  |  |  | 
Cn1cnc2c1c(=O)n(CCCCCCCCC1CO1)c(=O)n2C (centres unmarked) [Compound 1565, 1-(9,10-Oxidodecyl)-3,7-dimethylxanthine] |  |  |  |  |  |  | 17 | 32 | 30 | 40 | 38 |  | 
O=C1CCCC(=O)N1CCCCC1CO1 (centres unmarked) [Compound 1605, N-(5,6-Oxidohexyl) glutarimide] | decrease in cell adhesion induced by TNF-α in a dose dependent fashion | demonstrated activity | more potent than PTX | Mean fluorescence levels were decreased | inhibited PDGF-induced stimulation in a dose response fashion |  |  |  |  |  |  | inhibited proliferation | 
Cn1cnc2c1c(=O)n(CCCCCC[C@H]1CO1)c(=O)n2C [Compound 1553S, 1-(7(5)-7,8-Oxidooctyl)-3,7-dimethylxanthine] |  |  |  |  |  |  |  |  |  | 50 | 43 |  | 46
